The assay deals with T1, BTK (Homo sapiens, UniProt Q06187).
T1 construct: endogenous in cells; host or cells: Rec-1 cells (ATCC) / Ramos cells
Put plainly: BTK HTRF degradation assay. In kind it is cell-based. Conditions: treatment time 24 h; Cisbio Total-BTK HTRF; Rec-1 / Ramos cells. The protocol: Rec-1 cells were obtained from American Type Culture Collection and were grown in RPMI-1640 media (ATCC, 30-2001) supplemented with 10% heat-inactivated FBS (Corning Premium Fetal Bovine Serum from Fisher, MT35015CV). Compounds of the present invention were added to 50,000 Ramos cells in round-bottom 96 well plates with a final DMSO concentration of […] and were incubated at 37° C. 5% CO2 for different time. BTK levels were determined using Cisbio Total-BTK HTRF ([…] Time-Resolved Fluorescence) kit (63ADK064PEG) according to manufacturer's protocol. Briefly, cells were incubated in 1× supplied lysis buffer for 30 minutes. In an opaque white low volume 96 well plate (Cisbio, 66PL96005), cell lysate was combined with two different specific BTK antibodies, one conjugated with Eu3+-Cryptate FRET donor and one conjugated with d2 FRET acceptor. Assay controls include wells containing cell lysate with only the Eu3+-Cryptate FRET donor antibody and wells containing both HTRF antibodies and lysis buffer without cells or control lysate provided by Cisbio. HTRF ratio was calculated as (acceptor signal at 665 nm/donor signal at 620 nm)×[…]. Background HTRF levels were determined from the control well containing the donor, but no acceptor, antibody. Background HTRF levels were subtracted from all samples. Readouts were reported as HTRF levels relative to HTRF levels of DMSO-treated cells. Four-parameter non-linear regressions were performed in GraphPad Prism 7.02 to obtain DC50 values.
Background: Time-resolved FRET reads energy transfer from a long-lived donor to a nearby acceptor.

The results in this text go back to US20240058457A1, “BTK DEGRADER” (Newave Pharmaceutical Inc., priority 2020, published 2024).

What is called DC50 is the midpoint of the concentration-degradation curve. In general, Dmax refers to the greatest extent of degradation seen.

T1 sequence (Q06187 whole entry): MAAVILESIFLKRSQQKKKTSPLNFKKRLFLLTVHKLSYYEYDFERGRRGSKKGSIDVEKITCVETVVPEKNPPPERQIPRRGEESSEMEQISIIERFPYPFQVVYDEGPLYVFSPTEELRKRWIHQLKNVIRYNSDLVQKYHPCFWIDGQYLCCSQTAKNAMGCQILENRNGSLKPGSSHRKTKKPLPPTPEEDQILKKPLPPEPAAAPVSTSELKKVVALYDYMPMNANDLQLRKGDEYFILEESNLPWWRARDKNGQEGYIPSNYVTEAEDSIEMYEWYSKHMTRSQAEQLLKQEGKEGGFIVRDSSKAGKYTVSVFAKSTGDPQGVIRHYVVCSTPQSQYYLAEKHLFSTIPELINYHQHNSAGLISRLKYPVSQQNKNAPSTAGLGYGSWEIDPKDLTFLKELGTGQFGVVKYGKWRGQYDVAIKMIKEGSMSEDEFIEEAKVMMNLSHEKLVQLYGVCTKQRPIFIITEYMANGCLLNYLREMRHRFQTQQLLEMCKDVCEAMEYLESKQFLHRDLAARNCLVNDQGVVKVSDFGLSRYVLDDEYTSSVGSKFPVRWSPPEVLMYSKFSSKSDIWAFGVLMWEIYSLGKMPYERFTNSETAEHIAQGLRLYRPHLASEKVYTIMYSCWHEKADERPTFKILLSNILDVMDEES

The compound `C[C@H]1CN(C2CCN(c3ccc4c(c3)C(=O)N(C3CCC(=O)NC3=O)C4=O)CC2)CCN1c1ccc(Nc2cc(-c3ccnc(N4CCc5c(sc6c5CCCC6)C4=O)c3CO)cn(C)c2=O)nc1` (stereo partly drawn) [Example 9, 2-(2,6-dioxopiperidin-3-yl)-5-{4-[(3S)-4-(6-{[3′-(hydroxymethyl)-1-methyl-6-oxo-2′-{6-oxo-8-thia-5-azatricyclo[7.4.0.0^{2,7}]trideca-1(9),2(7)-dien-5-yl}-[3,4′-bipyridin]-5-yl]amino}pyridin-3-yl)-3-methylpiperazin-1-yl]piperidin-1-yl}isoindole-1,3-dione] came in with a DC50 of 0.9 nM and a Dmax % of 99%.

Consider `C[C@H]1CN(C2CN(c3ccc4c(c3)C(=O)N(C3CCC(=O)NC3=O)C4=O)C2)CCN1c1ccc(Nc2cc(-c3ccnc(N4CCn5c(cc6c5CC(C)(C)C6)C4=O)c3CO)cn(C)c2=O)nc1` (stereo partly drawn) [Example 1, 5-{3-[(3S)-4-{6-[(2′-{4,4-dimethyl-9-oxo-1,10-diazatricyclo[6.4.0.0^{2,6}]dodeca-2(6),7-dien-10-yl}-3′-(hydroxymethyl)-1-methyl-6-oxo-[3,4′-bipyridin]-5-yl)amino]pyridin-3-yl}-3-methylpiperazin-1-yl]azetidin-1-yl}-2-(2,6-dioxopiperidin-3-yl)isoindole-1,3-dione], for which the DC50 turned out to be 1.16 nM and the Dmax % was found to be 100%.

`Cc1c(-c2cc(Nc3ccc(N4CCN(C5CCN(c6ccc7c(c6)C(=O)N(C6CCC(=O)NC6=O)C7=O)CC5)C[C@@H]4C)cn3)c(=O)n(C)c2)ccnc1N1CCn2c(cc3c2CC(C)(C)C3)C1=O` (stereo partly drawn) [Example 10, 5-{4-[(3S)-4-{6-[(2′-{4,4-dimethyl-9-oxo-1,10-diazatricyclo[6.4.0.0^{2,6}]dodeca-2(6),7-dien-10-yl}-1,3′-dimethyl-6-oxo-[3,4′-bipyridin]-5-yl)amino]pyridin-3-yl}-3-methylpiperazin-1-yl]piperidin-1-yl}-2-(2,6-dioxopiperidin-3-yl)isoindole-1,3-dione] came in with a DC50 of 4.63 nM and a Dmax % of 99%.

The compound `C[C@H]1CN(C2CC(C#Cc3ccc4c(c3)C(=O)N(C3CCC(=O)NC3=O)C4=O)C2)CCN1c1ccc(Nc2cc(-c3ccnc(N4CCn5c(cc6c5CC(C)(C)C6)C4=O)c3CO)cn(C)c2=O)nc1` (stereo partly drawn) [Example 3, 5-((3-((S)-4-(6-((2′-(7,7-dimethyl-1-oxo-1,3,4,6,7,8-hexahydro-2H-cyclopenta[4,5]pyrrolo[1,2-a]pyrazin-2-yl)-3′-(hydroxymethyl)-1-methyl-6-oxo-1,6-dihydro-[3,4′-bipyridin]-5-yl)amino)pyridin-3-yl)-3-methylpiperazin-1-yl)cyclobutyl)ethynyl)-2-(2,6-dioxopiperidin-3-yl)isoindoline-1,3-dione] displayed a half-maximal degradation concentration (DC50) of 2.04 nM and a Dmax of 97%.

For the compound `C[C@H]1CN(C2CCN(c3ccc4c(c3)C(=O)N(C3CCC(=O)NC3=O)C4=O)CC2)CCN1c1ccc(Nc2cc(-c3ccnc(N4CCc5c(sc6c5CCCC6)C4=O)c3CO)cn(C)c2=O)nc1` (stereo partly drawn) [Example 11, 2-(2,6-dioxopiperidin-3-yl)-5-{4-[(3S)-4-(6-{[3′-(hydroxymethyl)-1-methyl-6-oxo-2′-{6-oxo-8-thia-5-azatricyclo[7.4.0.0^{2,7}]trideca-1(9),2(7)-dien-5-yl}-[3,4′-bipyridin]-5-yl]amino}pyridin-3-yl)-3-methylpiperazin-1-yl]piperidin-1-yl}isoindole-1,3-dione], half-maximal degradation (DC50) was put at 9.49 nM and the Dmax % came to 99%.

As for `C[C@H]1CN([C@H]2CCN3c4ccc5c(c4OC[C@@H]3C2)C(=O)N(C2CCC(=O)NC2=O)C5=O)CCN1c1ccc(Nc2cc(-c3ccnc(N4CCn5c(cc6c5CC(C)(C)C6)C4=O)c3CO)cn(C)c2=O)nc1.Cl` (stereo partly drawn) [Example 18], the Dmax % is given as 93%.

In the case of “5-{4-[(3S)-4-{6-[(6-tert-butyl-2′. {4,4-dimethyl-9-oxo-1,10-diazatricyclo[6.4.0.0^{2,6}]dodeca-2(6),7-dien-10-yl}-3′-(hydroxymethyl)-[3,4′-bipyridin]-5-yl)amino]pyridin-3-yl}-3-methylpiperazin-1-yl]piperidin-1-yl}-2-(2,6-dioxopiperidin-3-yl)isoindole-1,3-dione [Example 12]”, the DC50 was > 1000 nM and the Dmax % is given as 7%.

For the compound `COc1ncc(-c2ccnc(N3CCn4c(cc5c4CC(C)(C)C5)C3=O)c2CO)cc1Nc1ccc(N2CCN(C3CCN(c4ccc5c(c4)C(=O)N(C4CCC(=O)NC4=O)C5=O)CC3)C[C@@H]2C)cn1` (stereo partly drawn) [Example 14, 5-{4-[(3S)-4-{6-[(2′-{4,4-dimethyl-9-oxo-1,10-diazatricyclo[6.4.0.0^{2,6}]dodeca-2(6),7-dien-10-yl}-3′-(hydroxymethyl)-6-methoxy-[3,4′-bipyridin]-5-yl)amino]pyridin-3-yl}-3-methylpiperazin-1-yl]piperidin-1-yl}-2-(2,6-dioxopiperidin-3-yl)isoindole-1,3-dione], the DC50 came out at 1.15 nM and the Dmax % amounted to 94%.

`C[C@H]1CN([C@@H]2CCN3c4ccc5c(c4OC[C@H]3C2)C(=O)N(C2CCC(=O)NC2=O)C5=O)CCN1c1ccc(Nc2cc(-c3ccnc(N4CCn5c(cc6c5CC(C)(C)C6)C4=O)c3CO)cn(C)c2=O)nc1` (stereo partly drawn) [Example 16, (5aR,7R)-7-((S)-4-(6-((2′-(7,7-dimethyl-1-oxo-1,3,4,6,7,8-hexahydro-2H-cyclopenta[4,5]pyrrolo[1,2-a]pyrazin-2-yl)-3′-(hydroxymethyl)-1-methyl-6-oxo-1,6-dihydro-[3,4′-bipyridin]-5-yl)amino)pyridin-3-yl)-3-methylpiperazin-1-yl)-2-(2,6-dioxopiperidin-3-yl)-5,5a,6,7,8,9-hexahydro-1H-pyrido[1′,2′:4,5][1,4]oxazino[2,3-e]isoindole-1,3(2H)-dione] displayed a DC50 of 29.6 nM and a maximal degradation (Dmax) of 97%.

On to `C[C@H]1CN([C@H]2CCN3c4ccc5c(c4OC[C@H]3C2)C(=O)N(C2CCC(=O)NC2=O)C5=O)CCN1c1ccc(Nc2cc(-c3ccnc(N4CCn5c(cc6c5CC(C)(C)C6)C4=O)c3CO)cn(C)c2=O)nc1.Cl` (stereo partly drawn) [Example 17, hydrochloride], for which the DC50 was determined as 3.58 nM.

The compound `C[C@H]1CN(C2CCN(c3ccc4c(c3)C(=O)N(C3CCC(=O)NC3=O)C4=O)CC2)CCN1c1ccc(Nc2cc(-c3ccnc(N4CCn5c(cc6c5CC(C)(C)C6)C4=O)c3CO)ncn2)nc1` (stereo partly drawn) [Example 15, 5-{4-[(3S)-4-(6-{[6-(2-{4,4-dimethyl-9-oxo-1,10-diazatricyclo[6.4.0.0^{2,6}]dodeca-2(6),7-dien-10-yl}-3-(hydroxymethyl)pyridin-4-yl)pyrimidin-4-yl]amino}pyridin-3-yl)-3-methylpiperazin-1-yl]piperidin-1-yl}-2-(2,6-dioxopiperidin-3-yl)isoindole-1,3-dione] yielded a 50% degradation concentration (DC50) of 21.7 nM and a Dmax % of 98%.

Consider `C[C@H]1CN(C2CCN(c3ccc4c(c3)C(=O)N(C3CCC(=O)NC3=O)C4=O)CC2)CCN1c1ccc(Nc2cc(-c3ccnc(N4CCn5c(cc6c5CC(C)(C)C6)C4=O)c3CO)ccn2)nc1` (stereo partly drawn) [Example 13, 5-{4-[(3S)-4-{6-[(2′-{4,4-dimethyl-9-oxo-1,10-diazatricyclo[6.4.0.0^{2,6}]dodeca-2(6),7-dien-10-yl}-3′-(hydroxymethyl)-[4,4′-bipyridin]-2-yl)amino]pyridin-3-yl}-3-methylpiperazin-1-yl]piperidin-1-yl}-2-(2,6-dioxopiperidin-3-yl)isoindole-1,3-dione], for which the DC50 was 4.4 nM and the Dmax % was found to be 98%.

`C[C@H]1CN([C@H]2CCN3c4ccc5c(c4OC[C@@H]3C2)C(=O)N(C2CCC(=O)NC2=O)C5=O)CCN1c1ccc(Nc2cc(-c3ccnc(N4CCn5c(cc6c5CC(C)(C)C6)C4=O)c3CO)cn(C)c2=O)nc1.Cl` (stereo partly drawn) [Example 18, hydrochloride] came in with a DC50 of 22.8 nM.

On to `C[C@H]1CN([C@H]2CCN3c4ccc5c(c4OC[C@H]3C2)C(=O)N(C2CCC(=O)NC2=O)C5=O)CCN1c1ccc(Nc2cc(-c3ccnc(N4CCn5c(cc6c5CC(C)(C)C6)C4=O)c3CO)cn(C)c2=O)nc1.Cl` (stereo partly drawn) [Example 17], for which the Dmax % is recorded as 95%.
